Laboratory results published in patent US6482429B1, “Stable powder inhalation dosage formulation” (Boehringer Ingelheim Pharmaceuticals, Inc., priority 2001, dated 2002).

Assays:
[1] = Particle size distribution measured using the Aerosizer with Pulse Jet Disperser; type: physicochemical; settings: average of three measurements
Source text: The Pulse Jet Disperser device (Amherst Processing Instruments) was used for powder dispersion. Three measurements were made for each sample and the results were averaged.

[2] = Relative sintering rates under high relative humidity; type: physicochemical; settings: about 23° C., about one day of exposure, compared with lactose
Experimental: Two experiments were carried out, one at about 85% relative humidity and another at about 95% relative humidity. The experiments ran over several days, but the largest increment occurs fairly early. Both experiments were carried out at room temperature (about 23° C.). […] Sintering of cellobiose is slower. […].

Compound | Mean Particle Size [1] [μm] | Relative sintering rate (difference in number fraction Δf versus particle diameter) ([2]; approximately 85% relative humidity) | Relative sintering rate (difference in number fraction Δf versus particle diameter) ([2]; approximately 93% relative humidity)
O=C[C@H](O)[C@@H](O)[C@H](O[C@@H]1O[C@H](CO)[C@@H](O)[C@H](O)[C@H]1O)[C@H](O)CO [Cellobiose, cellobiose] | 2.032 | slower | slower
O.OC[C@H]1O[C@@H](O[C@H]2[C@H](O)[C@@H](O)C(O)O[C@@H]2CO)[C@H](O)[C@@H](O)[C@H]1O (stereo partly shown) [Lactose, lactose monohydrate, reference compound] | 2.044 |  | 
